Calls of active or inactive are those of the source. The rule behind the calls is not given here.
Tests used:
Protein S100-A4 = Protein S100-A4 (Homo sapiens, UniProt P26447); experiment: Binding affinity to S100A4 (unknown origin) assessed as inhibition of S100A4/myosin-2A interaction using fluorescein-tagged myosin-2A peptide (1908 to 1923 residues) by fluorescence polarization assay
MDA-MB-231 [1] = experiment: Growth inhibition of human MDA-MB-231 cells incubated for 24 hrs by MTT assay; assay type: functional
MDA-MB-231 [2] = experiment: Induction of cell death in human MDA-MB-231 cells at 50 uM incubated for 24 hrs by MTT assay relative to untreated control; assay type: functional

Chain of Protein S100-A4 (P26447 whole entry, the tested form may be a part): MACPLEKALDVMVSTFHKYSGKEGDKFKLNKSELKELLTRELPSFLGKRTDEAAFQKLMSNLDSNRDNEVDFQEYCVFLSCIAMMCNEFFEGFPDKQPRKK

| Compound | EC50 (Protein S100-A4) | other results |
| --- | --- | --- |
| CC1=C(SCCO)C(=O)c2ccccc2C1=O | 62 µM |  |
| O=C1c2ccccc2C(=O)C(Cl)C1Cl (centres undefined) | 27 µM |  |
| O=C1C(=O)c2ccccc2-c2ccccc21 [9,10-PHENANTHRENEQUINONE] | 3.8 µM |  |
| CC1=C(SCc2ccccc2)C(=O)c2ccccc2C1=O | 95 µM |  |
| O=C1C(=O)c2cc([N+](=O)[O-])ccc2-c2ccc([N+](=O)[O-])cc21 | 18 µM |  |
| O=C1C(=O)c2cccc([N+](=O)[O-])c2-c2c1cccc2[N+](=O)[O-] | 16 µM |  |
| O=C(O)C[C@@H]1OCC=C2CN3CC[C@]45C6=CC(=O)C(=O)C([N+](=O)[O-])=C6N[C@H]4[C@H]1[C@H]2C[C@H]35 |  | GI50 (MDA-MB-231 [1]): inactive |
| CSC1=CC(=O)c2ccccc2C1=O | 92.5 µM |  |
| O=C1CC(Cl)C(=O)c2ccccc21 (centres undefined) | 67.5 µM |  |
| O=C1C(NCCCN2CCCCC2)=CC(=O)c2ncccc21 | 85 µM |  |
| Nc1c2c(=O)[nH]c(=O)c2c(N)c2c(=O)c3ccccc3c(=O)c12 | 36 µM |  |
| CC1=C(SCC(=O)O)C(=O)c2ccccc2C1=O | 39 µM |  |
| O=C1C=C(NCCc2cc(Br)c(O)c(Br)c2)C(=O)c2ncccc21 | 92 µM |  |
| Cc1oc(-c2ccc(Cl)cc2)cc1C(=O)/C(C#N)=C/c1ccccc1 |  | Activity (MDA-MB-231 [2]): 100% |
| CCCCSC1=CC(=O)c2ccccc2C1=O | 40 µM |  |
| CC(=O)NC1=C(Sc2ccc(Cl)cc2)C(=O)c2ccccc2C1=O | 94 µM |  |
| Cc1ccc(C(=O)OC2=CC(=O)c3ccccc3C2=O)cc1 | 64 µM |  |
| O=C1NC(=S)S/C1=C/c1cc([N+](=O)[O-])ccc1Sc1ccc(C(F)(F)F)cn1 | 46 µM | GI50 (MDA-MB-231 [1]; MDA-MB-231, 24 h): 190 µM |
| CC(=O)N(C1=C(Cl)C(=O)c2ccccc2C1=O)c1ccc(F)cc1 | 96 µM |  |
| CSC1=C(C)C(=O)c2ccccc2C1=O | 64 µM |  |
| CCCCN(CCCC)CCCNC1=CC(=O)c2ncccc2C1=O | 70 µM |  |
| CCSC1=C(C)C(=O)c2ccccc2C1=O | 51 µM |  |

Second part, led by results:

| EC50 (Protein S100-A4) | Compound | other results |
| --- | --- | --- |
| 16 µM | O=C1C=C(SCCO)C(=O)c2ccccc21 |  |
| 35 µM | O=C1C(=C(Br)Br)c2ccccc2-c2ccccc21 |  |
| 8.1 to 8.7 µM | O=C1C(=O)c2cc(Cl)ccc2-c2ccc(Cl)cc21 |  |
| 2.2 µM | CC(=O)c1ccc2c(c1)-c1ccccc1C(=O)C2=O |  |
| 16 µM | NC1=C(Br)C(=O)c2ncccc2C1=O |  |
| 2.2 µM | O=C1C2=C(SCCS2)C(=O)c2ccccc21 |  |
| 8.3 µM | O=C1C(=O)c2cc(Br)cc([N+](=O)[O-])c2-c2ccc(Br)cc21 |  |
| 0.5 to 2 µM | O=C1C(=O)c2cc([N+](=O)[O-])ccc2-c2ccccc21 |  |
| 1.8 µM | O=C1C(=O)c2cc(Cl)ccc2-c2ccccc21 |  |
| 31 µM | O=C1C(=C2C=Nc3ccccc32)Nc2ccc(Br)cc21 |  |
| 21 µM | O=C(O)CCSC1=CC(=O)c2ccccc2C1=O |  |
| 34 µM | NC1=CC(=O)c2ncccc2C1=O |  |
| 16 µM | O=C1C=CC(=O)c2ncccc21 |  |
| 9 µM | CC(=O)NC1=C(Cl)C(=O)c2ncccc2C1=O |  |
| 8.6 µM | Cc1ccc2c(n1)C(=O)C=CC2=O |  |
| 8.4 µM | Cc1ccc(S(=O)(=O)N/N=C2\C(=O)c3ccccc3-c3ccccc32)cc1 |  |
| 14 µM | O=C1C(Cl)=C(Cl)C(=O)c2ncccc21 |  |
| 1.6 µM | Nc1ccc2c(c1)C(=O)C(=O)c1ccccc1-2 |  |
| 2.5 to 4.8 µM | O=C1c2ccccc2-c2ccccc2C1(Cl)Cl |  |
| 18 µM | CC(=O)NC1=CC(=O)c2cccnc2C1=O |  |
| 19 µM | O=C1C(=O)c2cc(Br)ccc2-c2ccc(Br)cc21 |  |
| 2.5 µM | O=C1C(=O)c2cccc([N+](=O)[O-])c2-c2ccccc21 |  |
| 12 µM | COC1=C(N)C(=O)c2ncccc2C1=O |  |
| 13.5 µM | NC1=C(Cl)C(=O)c2ncccc2C1=O |  |
| 22 µM | CCSC1=CC(=O)c2ccccc2C1=O |  |
| 28.7 µM | O=C1C(NCCF)=C(Cl)C(=O)c2ncccc21 |  |

Reference: ChEMBL document CHEMBL4418481, “Chemical agents for the prevention of inhibition or tumor metastasis” (2013)
